18 compounds from ChEMBL document CHEMBL1131363, “Isoindolinone enantiomers having affinity for the dopamine D4 receptor” (Bioorg Med Chem Lett, 1998) can be followed below.

Molecules are shown by their SMILES.

The target of one test is T1, D(4) dopamine receptor (Homo sapiens, UniProt P21917).
T1 sequence (P21917 whole entry): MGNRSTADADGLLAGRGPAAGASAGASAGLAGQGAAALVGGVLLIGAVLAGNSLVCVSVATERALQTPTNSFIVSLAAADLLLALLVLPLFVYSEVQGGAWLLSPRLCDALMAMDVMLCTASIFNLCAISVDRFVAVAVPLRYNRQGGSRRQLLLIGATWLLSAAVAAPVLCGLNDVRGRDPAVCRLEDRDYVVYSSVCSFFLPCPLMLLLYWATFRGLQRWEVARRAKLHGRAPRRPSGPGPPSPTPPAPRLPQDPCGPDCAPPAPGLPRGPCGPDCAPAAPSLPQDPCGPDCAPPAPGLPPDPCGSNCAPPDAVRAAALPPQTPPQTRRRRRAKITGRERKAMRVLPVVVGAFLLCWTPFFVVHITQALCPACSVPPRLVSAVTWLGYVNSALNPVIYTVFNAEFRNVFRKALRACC
Put plainly: In vitro binding affinity at human dopamine D4 receptor expressed in CHO cells by [3H]spiperone displacement. The class given is cell-based.

The target in another test is D(2) dopamine receptor (Homo sapiens, UniProt P14416). Put plainly: Displacement of [3H]spiperone from human Dopamine receptor D2 expressed in CHO cells. The class given is cell-based.
In the next test the target is D(3) dopamine receptor (Homo sapiens, UniProt P35462). Kind of test: Displacement of [3H]spiperone from human Dopamine receptor D3 expressed in CHO cells. The class given is cell-based. In general terms: In a radioligand displacement assay an active substance lowers the binding of a labelled ligand.
Test [1] addresses T2, 5-hydroxytryptamine receptor 1A (Mus musculus, UniProt Q64264).
T2 sequence (Q64264 whole entry): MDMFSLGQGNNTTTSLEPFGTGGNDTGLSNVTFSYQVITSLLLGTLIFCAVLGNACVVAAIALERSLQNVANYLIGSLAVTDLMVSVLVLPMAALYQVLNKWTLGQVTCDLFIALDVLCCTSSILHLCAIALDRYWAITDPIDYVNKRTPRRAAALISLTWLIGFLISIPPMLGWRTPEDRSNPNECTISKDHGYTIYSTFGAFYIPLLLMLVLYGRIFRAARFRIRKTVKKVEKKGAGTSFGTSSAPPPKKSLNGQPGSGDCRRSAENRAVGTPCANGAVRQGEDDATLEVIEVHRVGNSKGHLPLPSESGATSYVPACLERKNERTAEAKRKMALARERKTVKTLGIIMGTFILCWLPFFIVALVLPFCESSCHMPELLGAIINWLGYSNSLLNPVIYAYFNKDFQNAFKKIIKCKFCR
Kind of test: In vivo binding affinity was evaluated against 5-hydroxytryptamine 1A receptor. The class given is organism-based.

Test [2] has as its target 5-hydroxytryptamine receptor 2A (Bos taurus, UniProt Q75Z89). Put plainly: In vivo binding affinity was evaluated against 5-hydroxytryptamine 2 receptor. The test is classed as organism-based.
The test system of another test is Rattus norvegicus. Kind of test: Reversal of amphetamine (at 0.5 mg/kg given intra peritoneal) stimulated locomotor activity at 3 mg/kg in rat. The class given is functional.

D(3) dopamine receptor, sequence (P35462 whole entry): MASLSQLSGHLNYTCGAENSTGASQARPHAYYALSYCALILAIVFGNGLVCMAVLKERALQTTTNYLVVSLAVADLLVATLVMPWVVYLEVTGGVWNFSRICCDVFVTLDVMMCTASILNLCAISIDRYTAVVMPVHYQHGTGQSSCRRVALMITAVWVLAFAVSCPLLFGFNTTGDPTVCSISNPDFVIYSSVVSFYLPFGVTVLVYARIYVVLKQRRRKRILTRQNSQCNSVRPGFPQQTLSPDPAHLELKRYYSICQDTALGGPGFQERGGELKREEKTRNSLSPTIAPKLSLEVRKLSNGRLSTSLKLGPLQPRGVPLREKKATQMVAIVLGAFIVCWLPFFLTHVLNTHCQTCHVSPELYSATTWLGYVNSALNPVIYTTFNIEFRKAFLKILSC
D(2) dopamine receptor, sequence (P14416 whole entry): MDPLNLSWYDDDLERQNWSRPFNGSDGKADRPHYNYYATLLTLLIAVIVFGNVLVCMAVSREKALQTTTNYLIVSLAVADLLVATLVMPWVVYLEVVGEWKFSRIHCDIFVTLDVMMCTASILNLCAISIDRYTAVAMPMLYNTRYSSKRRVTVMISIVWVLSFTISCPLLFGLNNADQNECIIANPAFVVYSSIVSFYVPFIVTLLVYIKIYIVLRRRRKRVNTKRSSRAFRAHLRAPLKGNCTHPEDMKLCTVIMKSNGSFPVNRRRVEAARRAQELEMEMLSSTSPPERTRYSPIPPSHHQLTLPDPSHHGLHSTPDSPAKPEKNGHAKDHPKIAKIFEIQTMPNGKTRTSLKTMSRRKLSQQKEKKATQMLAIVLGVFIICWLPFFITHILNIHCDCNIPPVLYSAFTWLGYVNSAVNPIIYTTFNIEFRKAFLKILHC
5-hydroxytryptamine receptor 2A, sequence (Q75Z89 whole entry): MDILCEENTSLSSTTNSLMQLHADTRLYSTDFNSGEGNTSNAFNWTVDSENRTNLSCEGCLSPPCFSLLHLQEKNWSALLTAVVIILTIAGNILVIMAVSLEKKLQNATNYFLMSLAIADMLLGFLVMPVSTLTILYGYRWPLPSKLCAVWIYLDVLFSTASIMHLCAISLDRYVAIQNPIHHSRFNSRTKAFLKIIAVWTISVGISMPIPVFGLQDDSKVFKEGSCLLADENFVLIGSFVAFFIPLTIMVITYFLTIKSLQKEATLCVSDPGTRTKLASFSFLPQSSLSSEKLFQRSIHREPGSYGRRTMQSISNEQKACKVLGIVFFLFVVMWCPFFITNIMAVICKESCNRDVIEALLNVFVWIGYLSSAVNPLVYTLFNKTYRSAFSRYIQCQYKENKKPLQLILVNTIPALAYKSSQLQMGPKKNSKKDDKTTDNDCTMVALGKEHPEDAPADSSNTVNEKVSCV

With `O=C(CCN1CCN(c2ccc(CO)c(Cl)c2)CC1)c1ccc(Cl)cc1`, the Ki – broadly, a measure of affinity in units of concentration, obtained from inhibition or displacement – on D(4) dopamine receptor stood at 60 nM.

For the compound `Cc1ccc(N2CCN(CCC3NC(=O)c4ccccc43)CC2)cc1` (configuration not stated), the Ki at D(2) dopamine receptor is over 5000 nM; at D(3) dopamine receptor, over 3000 nM.

Consider `O=C1NC(CCN2CCN(c3ccc(Cl)cc3)CC2)c2ccccc21` (configuration not stated), for which the Ki is over 5000 nM at D(2) dopamine receptor and over 3000 nM on D(3) dopamine receptor.

At D(3) dopamine receptor, `O=C1NC(CCN2CCN(c3ccccc3)CC2)c2ccccc21` (configuration not stated) showed a Ki of 2680 nM.

For `Cc1ccc(N2CCN(CC[C@H]3NC(=O)c4ccccc43)CC2)cc1C`, the Ki amounted to 525 nM in test [1] and 36.4 nM in test [2]. In addition, the Activity in the test on Rattus norvegicus is reported as 8%.

On to `COc1ccc(N2CCN(CCC3c4ccccc4C(=O)N3C)CC2)cc1` (configuration not stated), for which the inhibitory constant (Ki) at D(2) dopamine receptor is over 5000 nM; at D(3) dopamine receptor, over 3000 nM; on D(4) dopamine receptor, 333 nM.

Turning to `Cc1ccc(N2CCN(CCC3c4ccccc4C(=O)N3C)CC2)cc1C` (configuration not stated), the Ki is over 5000 nM at D(2) dopamine receptor, over 3000 nM at D(3) dopamine receptor and 35.1 nM at D(4) dopamine receptor.

On D(4) dopamine receptor, `OCc1ccc(N2CCN(CCC(O)c3ccc(Cl)cc3)CC2)cc1Cl` (configuration not stated) returned a Ki of 11 nM.

For the compound `CN1C(=O)c2ccccc2C1CCN1CCN(c2ccc(Cl)cc2)CC1` (configuration not stated), the Ki was over 5000 nM at D(2) dopamine receptor, over 3000 nM on D(3) dopamine receptor and 78.6 nM at D(4) dopamine receptor.

Turning to `O=C1NC(CCN2CCN(c3ccc4ccccc4c3)CC2)c2ccccc21` (configuration not stated), the Ki at D(2) dopamine receptor was over 5000 nM; at D(3) dopamine receptor, over 3000 nM; on D(4) dopamine receptor it was 10 nM.

As for `Cc1ccc(N2CCN(CC[C@@H]3NC(=O)c4ccccc43)CC2)cc1C`, the results for the Ki in test [1] and in test [2] were 991 nM and 14.6 nM, respectively. Also, in the test on Rattus norvegicus, the Activity amounted to 70%.

Consider `Cc1ccc(C2CCN(CCC3NC(=O)c4ccccc43)CC2)cc1C` (configuration not stated), for which the Ki at D(3) dopamine receptor was over 3000 nM.

On to `Cc1ccnc(N2CCN(CCC3NC(=O)c4ccccc43)CC2)c1` (configuration not stated), for which the Ki is over 5000 nM on D(2) dopamine receptor, over 3000 nM on D(3) dopamine receptor and 22.6 nM on D(4) dopamine receptor.

Consider `COc1ccc(N2CCN(CCC3NC(=O)c4ccccc43)CC2)cc1` (configuration not stated), for which the Ki was over 5000 nM at D(2) dopamine receptor, over 3000 nM on D(3) dopamine receptor and 37.3 nM on D(4) dopamine receptor.

At D(4) dopamine receptor, `OCc1ccc(N2CCN(CC[C@H](O)c3ccc(Cl)cc3)CC2)cc1Cl` returned an inhibition constant (Ki) of 8.6 nM. In other words, the single-digit nanomolar range.

In turn, `OCc1ccc(N2CCN(CC[C@@H](O)c3ccc(Cl)cc3)CC2)cc1Cl` yielded an inhibition constant (Ki) at D(4) dopamine receptor of 81.4 nM.

On D(3) dopamine receptor, `Cc1ccc(N2CCN(CCC3NC(=O)c4ccccc43)CC2)cc1C` (configuration not stated) yielded an inhibition constant (Ki) of 2680 nM.

Regarding `Cc1nc(N2CCN(CCC3NC(=O)c4ccccc43)CC2)sc1C` (configuration not stated), the Ki is over 5000 nM on D(2) dopamine receptor and over 3000 nM at D(3) dopamine receptor.
